Where two headings read alike, the source gives them in different places.
Columns and labels:
KRAS WT = KRAS WT (Homo sapiens, UniProt P01116+P62937); assay: Disruption of BRAF RBD interaction with Ras (FRET / MOA assay, with Cyclophilin A); format: biochemical
Summary of the method: (§1)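 First, compounds at a ten-point threefold dilution series (highest final concentration 30 μM) were incubated with nucleotide-loaded K-Ras, Cyclophilin A and BRAF RBD for 3 h at 25 °C. Next, detection antibodies were added for 1.5 h. Finally, IC50 was calculated from TR-FRET ratio decreases against DMSO controls.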

NRAS G12C = NRAS G12C (Homo sapiens, UniProt P01111+P62937, G12C); assay: as above; format: biochemical
KRAS G12D = KRAS G12D (Homo sapiens, UniProt P01116+P62937, G12D); assay: as above; format: biochemical
Summary of the method: as §1

KRAS G12S = KRAS G12S (Homo sapiens, UniProt P01116+P62937, G12S); assay: as above; format: biochemical
Summary of the method: as §1

KRAS G12V = KRAS G12V (Homo sapiens, UniProt P01116+P62937, G12V); assay: as above; format: biochemical
Summary of the method: as §1

KRAS G13D = KRAS G13D (Homo sapiens, UniProt P01116+P62937, G13D); assay: as above; format: biochemical
Summary of the method: as §1

KRAS G12C = KRAS G12C (Homo sapiens, UniProt P01116+P62937, G12C); assay: as above; format: biochemical
Summary of the method: as §1

KRAS G13C = KRAS G13C (Homo sapiens, UniProt P01116+P62937, G13C); assay: as above; format: biochemical
Summary of the method: as §1

NRAS Q61K = NRAS Q61K (Homo sapiens, UniProt P01111+P62937, Q61K); assay: as above; format: biochemical
Summary of the method: (§2)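 IC50 reflects compound-driven Ras:Cyclophilin A ternary complex displacing BRAF RBD, read as lowered TR-FRET ratio relative to DMSO after Eu anti-His (10 nM) and APC anti-GST (50 nM) detection for 1.5 h. Prior incubation 3 h, 25° C, with 12.5 nM GMPPNP-loaded Ras, 50 nM BRAF RBD, 25 μM Cyclophilin A; top compound 30 μM.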

NRAS Q61R = NRAS Q61R (Homo sapiens, UniProt P01111+P62937, Q61R); assay: as above; format: biochemical
Summary of the method: as §2

NRAS WT = NRAS WT (Homo sapiens, UniProt P01111+P62937); assay: as above; format: biochemical
Summary of the method: as §2

KRAS Q61H = KRAS Q61H (Homo sapiens, UniProt P01116+P62937, Q61H); assay: as above; format: biochemical
Summary of the method: as §2

NCI-H358 (K-Ras G12C) = assay: CellTiter-Glo cell viability assay, 5-day treatment; format: cell-based; conditions: Homo sapiens, NCI-H358, 120 h, 5-day treatment; read-out: H358 Cell Viability assay data (K-Ras G12C, IC50)
Summary of the method: (§3)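 Compounds were dispensed directly onto seeded cells and incubated for 5 days, then plates were equilibrated to room temperature for about 30 minutes before luminescence reading. Signals were expressed as percent of the mean DMSO control and fitted with a four-parameter logistic curve.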

Capan-1 (K-Ras G12V) = assay: as above; format: cell-based; conditions: Homo sapiens, CAPAN-1, 120 h, 5-day treatment; read-out: Capan-1 Cell Viability assay data (K-Ras G12V, IC50)
Summary of the method: as §3

[1] = KRAS WT, read-out: KRAS WT FRET data IC50
[2] = NRAS G12C, read-out: NRAS G12C FRET data IC50
[3] = read-out: KRAS G12D FRET data, IC50
[4] = read-out: KRAS G12S FRET data, IC50
[5] = KRAS G12V, read-out: KRAS G12V FRET data IC50
[6] = KRAS G13D, read-out: KRAS G13D FRET data IC50
[7] = read-out: KRAS G12C FRET data, IC50
[8] = read-out: KRAS G13C FRET data, IC50
[9] = NRAS Q61K, read-out: NRAS Q61K FRET data IC50
[10] = NRAS Q61R, read-out: NRAS Q61R FRET data IC50
[11] = NRAS WT, read-out: NRAS WT FRET data IC50
[12] = KRAS Q61H, read-out: KRAS Q61H FRET data IC50

Sequence of NRAS G12C (P01111 whole entry G12C): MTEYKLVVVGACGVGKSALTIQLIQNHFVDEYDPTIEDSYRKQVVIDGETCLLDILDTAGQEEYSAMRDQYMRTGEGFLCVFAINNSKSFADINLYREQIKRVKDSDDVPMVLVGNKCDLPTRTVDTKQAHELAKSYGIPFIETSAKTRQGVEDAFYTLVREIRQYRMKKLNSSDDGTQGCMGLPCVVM
Sequence of NRAS G12C (P62937 whole entry): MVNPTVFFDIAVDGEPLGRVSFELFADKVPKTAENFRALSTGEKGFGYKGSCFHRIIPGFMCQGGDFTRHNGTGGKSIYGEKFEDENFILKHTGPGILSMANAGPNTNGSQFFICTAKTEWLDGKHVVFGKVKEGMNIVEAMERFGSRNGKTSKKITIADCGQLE
Sequence of KRAS G13C (P01116 1-169 isoform P01116-2 G13C): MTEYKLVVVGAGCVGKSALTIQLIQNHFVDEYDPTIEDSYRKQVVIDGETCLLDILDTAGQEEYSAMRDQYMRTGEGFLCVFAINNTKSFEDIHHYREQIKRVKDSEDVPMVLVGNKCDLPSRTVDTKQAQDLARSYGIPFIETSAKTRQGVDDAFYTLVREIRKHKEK
Sequence of KRAS G13C (P62937 whole entry): as the sequence (P62937 whole entry) above
Sequence of KRAS Q61H (P01116 1-169 isoform P01116-2 Q61H limits assumed): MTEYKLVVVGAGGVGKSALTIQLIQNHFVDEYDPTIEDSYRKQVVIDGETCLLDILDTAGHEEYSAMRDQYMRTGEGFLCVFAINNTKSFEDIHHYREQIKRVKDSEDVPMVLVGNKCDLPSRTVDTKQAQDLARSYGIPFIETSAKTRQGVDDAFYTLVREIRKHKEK
Sequence of KRAS Q61H (P62937 whole entry): as the sequence (P62937 whole entry) above
Sequence of KRAS G12V (P01116 1-169 isoform P01116-2 G12V limits assumed): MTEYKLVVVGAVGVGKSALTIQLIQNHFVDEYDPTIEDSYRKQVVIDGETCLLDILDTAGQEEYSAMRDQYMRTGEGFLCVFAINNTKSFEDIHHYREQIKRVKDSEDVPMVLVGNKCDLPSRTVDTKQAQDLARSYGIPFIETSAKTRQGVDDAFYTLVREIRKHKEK
Sequence of KRAS G12V (P62937 whole entry): as the sequence (P62937 whole entry) above
Sequence of KRAS G12D (P01116 1-169 isoform P01116-2 G12D limits assumed): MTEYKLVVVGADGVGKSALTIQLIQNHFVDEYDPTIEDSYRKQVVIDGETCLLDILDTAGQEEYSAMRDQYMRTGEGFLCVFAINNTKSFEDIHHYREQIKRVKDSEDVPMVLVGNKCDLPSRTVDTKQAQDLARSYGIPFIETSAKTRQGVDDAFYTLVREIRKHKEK
Sequence of KRAS G12D (P62937 whole entry): as the sequence (P62937 whole entry) above
Sequence of KRAS G12S (P01116 1-169 isoform P01116-2 G12S limits assumed): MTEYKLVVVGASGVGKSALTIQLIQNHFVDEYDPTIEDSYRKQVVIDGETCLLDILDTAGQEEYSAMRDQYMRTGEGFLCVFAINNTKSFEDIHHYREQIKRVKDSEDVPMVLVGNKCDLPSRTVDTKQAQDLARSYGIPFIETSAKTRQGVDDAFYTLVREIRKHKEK
Sequence of KRAS G12S (P62937 whole entry): as the sequence (P62937 whole entry) above
Sequence of NRAS WT (P01111 whole entry): as the sequence (P01111 whole entry G12C) above, with C12G counted along it
Sequence of NRAS WT (P62937 whole entry): as the sequence (P62937 whole entry) above
Sequence of NRAS Q61R (P01111 whole entry Q61R): as the sequence (P01111 whole entry G12C) above, with C12G, Q61R counted along it
Sequence of NRAS Q61R (P62937 whole entry): as the sequence (P62937 whole entry) above
Sequence of KRAS G12C (P01116 1-169 isoform P01116-2 G12C): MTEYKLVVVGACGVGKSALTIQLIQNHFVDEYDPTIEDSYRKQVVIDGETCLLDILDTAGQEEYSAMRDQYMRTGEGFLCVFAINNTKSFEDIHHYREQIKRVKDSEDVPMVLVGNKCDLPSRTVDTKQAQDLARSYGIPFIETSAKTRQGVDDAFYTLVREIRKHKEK
Sequence of KRAS G12C (P62937 whole entry): as the sequence (P62937 whole entry) above
Sequence of KRAS G13D (P01116 1-169 isoform P01116-2 G13D limits assumed): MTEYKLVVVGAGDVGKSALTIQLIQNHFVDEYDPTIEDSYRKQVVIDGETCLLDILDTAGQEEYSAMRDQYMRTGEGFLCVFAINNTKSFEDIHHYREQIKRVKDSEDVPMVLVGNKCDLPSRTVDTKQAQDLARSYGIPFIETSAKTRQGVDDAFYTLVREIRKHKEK
Sequence of KRAS G13D (P62937 whole entry): as the sequence (P62937 whole entry) above
Sequence of KRAS WT (P01116 1-169 isoform P01116-2 limits assumed): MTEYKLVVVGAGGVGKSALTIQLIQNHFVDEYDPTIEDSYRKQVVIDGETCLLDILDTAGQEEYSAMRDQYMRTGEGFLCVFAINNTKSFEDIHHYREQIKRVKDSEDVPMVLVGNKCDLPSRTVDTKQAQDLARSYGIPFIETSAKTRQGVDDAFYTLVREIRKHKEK
Sequence of KRAS WT (P62937 whole entry): as the sequence (P62937 whole entry) above
Sequence of NRAS Q61K (P01111 whole entry Q61K): as the sequence (P01111 whole entry G12C) above, with C12G, Q61K counted along it
Sequence of NRAS Q61K (P62937 whole entry): as the sequence (P62937 whole entry) above

Structure (SMILES) | IC50 (KRAS WT; [1]) [nM] | IC50 (NRAS G12C; [2]) [nM] | IC50 (KRAS G12D; [3]) [nM] | IC50 (KRAS G12S; [4]) [nM] | IC50 (KRAS G12V; [5]) [nM] | IC50 (KRAS G13D; [6]) [nM] | IC50 (KRAS G12C; [7]) [nM] | IC50 (KRAS G13C; [8]) [nM] | IC50 (NRAS Q61K; [9]) [nM] | IC50 (NRAS Q61R; [10]) [nM] | IC50 (NRAS WT; [11]) [nM] | IC50 (KRAS Q61H; [12]) [nM] | IC50 (NCI-H358 (K-Ras G12C)) [nM] | IC50 (Capan-1 (K-Ras G12V)) [nM] | also measured
CCn1c(-c2cc(N3CCN(C)CC3)cnc2[C@H](C)OC)c2c3cc(ccc31)-c1csc(n1)C[C@H](NC(=O)[C@H](C(C)C)N(C)C(=O)N1CCOCC1)C(=O)N1CCC[C@H](N1)C(=O)OCC(C)(C)C2 (atropisomer, axis not shown) [Example A555] | 10 to 100 | 10 to 100 | 100 to 1000 | 10 to 100 | 10 to 100 | 100 to 1000 | 10 to 100 | 10 to 100 | 10 to 100 | 10 to 100 | 10 to 100 | 10 to 100 | < 10 | < 10 | –
CCn1c(-c2cccnc2[C@H](C)OC)c2c3cc(ccc31)-c1csc(n1)C[C@H](NC(=O)[C@H](C(C)C)N(C)C(=O)N1CCOC[C@@H]1c1ccccc1)C(=O)N1CCC[C@H](N1)C(=O)OCC(C)(C)C2 [Example A604] | 1000 to 10000 | 1000 to 10000 | 1000 to 10000 | 1000 to 10000 | 1000 to 10000 | 1000 to 10000 | 1000 to 10000 | 1000 to 10000 | 100 to 1000 | 1000 to 10000 | 1000 to 10000 | 100 to 1000 | 100 to 1000 | 1000 to 10000 | –
CCn1c(-c2cccnc2[C@H](C)OC)c2c3cc(ccc31)-c1csc(n1)C[C@H](NC(=O)[C@H](C(C)C)N(C)C(=O)N1CCC[C@@H](N(C)C)CC1)C(=O)N1CCC[C@H](N1)C(=O)OCC(C)(C)C2 [Example A494] | – | – | – | – | – | – | – | – | – | – | – | – | 10 to 100 | 10 to 100 | IC50 (KRAS WT; KRAS WT FRET data IC50, KRAS WT): 10 to 100 nM; IC50 (NRAS G12C; NRAS G12C FRET data IC50, NRAS G12C): 10 to 100 nM; IC50 (KRAS G12D; KRAS G12D FRET data, IC50): 10 to 100 nM; IC50 (KRAS G12S; KRAS G12S FRET data, IC50): 10 to 100 nM; IC50 (KRAS G12V; KRAS G12V FRET data IC50, KRAS G12V): 100 to 1000 nM; IC50 (KRAS G13D; KRAS G13D FRET data IC50, KRAS G13D): 100 to 1000 nM; IC50 (KRAS G12C; KRAS G12C FRET data, IC50): 10 to 100 nM; IC50 (KRAS G13C; KRAS G13C FRET data, IC50): 100 to 1000 nM; IC50 (NRAS Q61K; NRAS Q61K FRET data IC50, NRAS Q61K): 10 to 100 nM; IC50 (NRAS Q61R; NRAS Q61R FRET data IC50, NRAS Q61R): 10 to 100 nM; IC50 (NRAS WT; NRAS WT FRET data IC50, NRAS WT): 10 to 100 nM; IC50 (KRAS Q61H; KRAS Q61H FRET data IC50, KRAS Q61H): 10 to 100 nM
CCn1c(-c2cccnc2[C@H](C)OC)c2c3cc(ccc31)-c1csc(n1)C[C@H](NC(=O)[C@H](C(C)C)N(C)C(=O)N1CCC[C@@H](N(C)C)C1)C(=O)N1CCC[C@H](N1)C(=O)OCC(C)(C)C2 (atropisomer, axis not shown) [Example A531] | 100 to 1000 | 10 to 100 | 100 to 1000 | 100 to 1000 | 100 to 1000 | 100 to 1000 | 100 to 1000 | 100 to 1000 | 10 to 100 | 100 to 1000 | 10 to 100 | 10 to 100 | 10 to 100 | 10 to 100 | –
CCn1c(-c2cccnc2[C@H](C)OC)c2c3cc(ccc31)-c1csc(n1)C[C@H](NC(=O)[C@H](C(C)C)N(C)C(=O)N1CCC3(CC1)CN(C)CCO3)C(=O)N1CCC[C@H](N1)C(=O)OCC(C)(C)C2 [Example A433] | 100 to 1000 | 100 to 1000 | 1000 to 10000 | 100 to 1000 | 100 to 1000 | 100 to 1000 | 100 to 1000 | 100 to 1000 | 100 to 1000 | 100 to 1000 | 100 to 1000 | 100 to 1000 | 10 to 100 | 10 to 100 | –

Reference: patent publication US20230233569A1 (Revolution Medicines, Inc., priority 2020, published 2023)
